Laboratory results from PMC12527977, “Discovery of a novel tetrapeptide as glucose homeostasis modulator with bifunctionalities of targeting DPP‐IV and microbiota” (iMeta, 2025).
“And” between values parts separate entries of the source, which are not always exact repeats. Equal values may be shown once. Where a name gives a salt, the structure may show the parent alone. Read-outs that look alike come from different tables or passages of the source. Where a SMILES comes first, the peptide text is derived from it.

How the values were obtained:
[1] = Simulated digestive stability of peptides (pepsase then trypsase); assay type: in vitro ADME, porcine; conditions: pig, relative to basal 100, sheet S2H; for remaining at 4 h, 5 mg/mL: pH 7, simulated digestion, after pepsase then trypsase, read-out: Peptide remaining, Trypsase; for remaining at 2 h, 5 mg/mL: porcine pepsase (simulated gastric digestion), pH 3, simulated digestion, after porcine pepsase, read-out: Peptide remaining, Pepsase
Description: (§1) The in vitro digestibility of the peptides was determined according to the method described by Ohanenye et al. with some modifications. Briefly, 5.0 mg/mL peptides were mixed with 5000 U/mL porcine pepsase (pH 3.0). The mixture was incubated with continuous shaking in a water bath at 37 ℃ for 2 h. Then, the mixture was adjusted to pH 7.0, and a final concentration of 100 U/mL trypsase was added, followed by continuous shaking at 37 ℃ for another 2 h. After digestion, the enzyme was inactivated, and the mixture was incubated in a water bath (100 ℃) for 20 min. Subsequently, the mixture was centrifuged at 6000 rpm for 20 min, after which the supernatants were collected for further analysis. The concentrations of peptides in the digestions and TPH were determined via AB SCIEX QTrap 6600+ (AB Sciex, Framingham, Massachusetts).

[2] = tested on: porcine pepsase and trypsase; experiment: as above; assay type: in vitro ADME; conditions: in words; 5.0 mg/mL peptide, pepsase 5000 U/mL pH 3.0 37 °C 2 h, then trypsase 100 U/mL pH 7.0 37 °C 2 h, LC-MS
Description: as §1

[3] = target: T1, DPP-IV (Homo sapiens, UniProt P27487); experiment: DPP-IV inhibitory activity of peptides (DPP-IV-Glo Protease Assay Kit); assay type: biochemical; design: purchased QiZheng Biotech (Shanghai, China) IBDPP0901; conditions: for DPP-IV inhibitory activity: DPP-IV-Glo Protease Assay Kit, control = 0, sheet S2F, in % (unit assumed); for IC50: read-out: IC50
Target sequence in this assay (P27487 whole entry): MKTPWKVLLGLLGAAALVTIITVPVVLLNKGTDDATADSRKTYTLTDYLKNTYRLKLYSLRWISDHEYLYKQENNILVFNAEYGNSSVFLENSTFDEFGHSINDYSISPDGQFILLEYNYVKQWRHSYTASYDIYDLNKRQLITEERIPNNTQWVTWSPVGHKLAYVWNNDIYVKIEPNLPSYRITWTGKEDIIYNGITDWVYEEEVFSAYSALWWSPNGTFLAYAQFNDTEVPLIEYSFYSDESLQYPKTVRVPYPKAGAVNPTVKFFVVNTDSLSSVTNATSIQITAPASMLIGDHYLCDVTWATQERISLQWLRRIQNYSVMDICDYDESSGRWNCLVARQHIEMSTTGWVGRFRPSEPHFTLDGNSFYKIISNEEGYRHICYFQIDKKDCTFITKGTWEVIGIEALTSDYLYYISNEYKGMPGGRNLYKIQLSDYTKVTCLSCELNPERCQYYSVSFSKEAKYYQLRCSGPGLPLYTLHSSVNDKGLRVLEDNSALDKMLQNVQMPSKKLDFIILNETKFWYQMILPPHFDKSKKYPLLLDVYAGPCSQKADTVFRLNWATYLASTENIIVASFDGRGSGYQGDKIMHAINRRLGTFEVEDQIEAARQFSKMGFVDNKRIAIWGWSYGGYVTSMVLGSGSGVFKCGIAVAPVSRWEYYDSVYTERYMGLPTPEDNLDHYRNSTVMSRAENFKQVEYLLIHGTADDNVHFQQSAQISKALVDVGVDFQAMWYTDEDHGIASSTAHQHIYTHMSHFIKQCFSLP

[4] = tested on: HFD-fed C57BL/6J mice; experiment: HFD-fed mice, TPH/sitagliptin/HSP 8 weeks: FBG, OGTT, fasting insulin, HOMA-IR; assay type: in vivo, mouse; design: unit not given here; conditions: 8 weeks p.o. (Sit 12.5, TPH 80, HSP 320 mg/kg)
Description: (§2) To evaluate the hypoglycaemic activity of TPH, all mice were fed a high-fat diet (HFD, Research Diets, cat# D12492).
Oral glucose tolerance tests (OGTTs) were conducted following a 6-hour fasting period in mice. Blood glucose levels were assessed using a glucometer on tail vein blood samples at 0, 15, 30, 60, and 90 min after oral glucose administration with a dosage of 1.5 g/kg body weight. For insulin tolerance tests (ITTs), mice were intraperitoneal injected with insulin (0.8 U/kg body weight) after 6 h of fasting. […] The levels of active GLP-1, total GLP-1, and insulin were measured using the corresponding kits and normalized to the protein concentration (via a BCA protein assay).

[5] = tested on: HFD-fed C57BL/6J mice; experiment: HFD-fed mice, TPH/sitagliptin/HSP 8 weeks: plasma NEFA, TG, TC, HDL-c, LDL-c; assay type: in vivo, mouse; conditions: individual animals, n = 6, sheet S1U, listed as Sit
Description: as §2
The levels of plasma total cholesterol (TC), triacylglycerol (TG), high-density lipoprotein cholesterol (HDL-c), low-density lipoprotein cholesterol (LDL-c), nonesterified fatty acid (NEFA), tumour necrosis factor α (TNF α), and interleukin-1β (IL-1β) were determined by commercial kit (Nanjing Jiancheng Bioengineering Institute, Nanjing, China).

[6] = tested on: gut microbiota, A. muciniphila; experiment: HFD-fed mice, TPH or sitagliptin 8 weeks: gut microbiota (16S rRNA); assay type: in vivo, mouse; conditions: in words, 8 weeks p.o.
Source text: To evaluate the hypoglycaemic activity of TPH, all mice were fed a high-fat diet (HFD, Research Diets, cat# D12492). […] Raw sequencing data were processed with QIIME2. In brief, the forward and reverse reads each were truncated at 200 bases. Taxonomy was assigned using the Greengenes reference (version 13.8) database. Analyses of alpha diversity (one-way ANOVA followed by Tukey’s post hoc test), beta diversity (weighted UniFrac distance followed by ANOSIM test), and bacterial taxonomic distributions were performed using MicrobiomeAnalyst.

[7] = target: T1, DPP-IV; experiment: Surface plasmon resonance (Biacore 8K, CM5 chip, 25 °C); assay type: binding; design: purchased QiZheng Biotech (Shanghai, China) IBDPP0901; conditions: SPR, Table S3; read-out: KD values
[8] = tested on: A. muciniphila; experiment: HFD-fed mice, VAMP and/or benzydamine 4 weeks: A. muciniphila abundance in faeces (qPCR); assay type: in vivo, mouse; conditions: in words, 50 mg/kg three times per week for 4 weeks
[9] = tested on: A. muciniphila; experiment: Effect of different drugs (50 μM) on the growth of A. muciniphila; assay type: cell-based, Akkermansia muciniphila; conditions: in words; drugs at 50 μM

SMILES | remaining at 4 h, 5 mg/mL ([1]; replicate 1) [%] | remaining at 4 h, 5 mg/mL ([1]; replicate 2) [%] | remaining at 4 h, 5 mg/mL ([1]; replicate 3) [%] | remaining at 2 h, 5 mg/mL ([1]; replicate 1) [%] | remaining at 2 h, 5 mg/mL ([1]; replicate 2) [%] | remaining at 2 h, 5 mg/mL ([1]; replicate 3) [%] | Resistance to simulated gastric pepsase and trypsase digestion [2] | DPP-IV inhibitory activity ([3]; replicate 1) | DPP-IV inhibitory activity ([3]; replicate 2) | DPP-IV inhibitory activity ([3]; replicate 3) | IC50 ([3]; Table S3) [µM] | Kd [7] [µM] | other results
NC(=O)CC[C@H](NC(=O)[C@@H]1CCCN1C(=O)[C@@H](N)Cc1ccccc1)C(=O)N[C@@H](CO)C(=O)O [FPQS] (H-FPQS-OH) | 85.1 | 83.4 | 87.9 | 94.6 | 92.4 | 92.7 | readily resistant | 35.1258 | 29.3845 | 34.8747 | 350 |  | IC50 ([3]; source data of heatmap Fig 1J): 80 µM
N[C@@H](CC(=O)N1CCn2c(nnc2C(F)(F)F)C1)Cc1cc(F)c(F)cc1F [Sitagliptin] |  |  |  |  |  |  |  |  |  |  |  |  | AUC of the OGTT ([4]; mouse 1 of group): 27513; Levels of fasting insulin ([4]; mouse 1 of group): 31.21; AUC of the OGTT ([4]; mouse 2 of group): 22668; Levels of fasting insulin ([4]; mouse 2 of group): 34.42; AUC of the OGTT ([4]; mouse 3 of group): 23854.5; Levels of fasting insulin ([4]; mouse 3 of group): 37.914; AUC of the OGTT ([4]; mouse 4 of group): 21897; Levels of fasting insulin ([4]; mouse 4 of group): 32.691; AUC of the OGTT ([4]; mouse 5 of group): 22426.5; Levels of fasting insulin ([4]; mouse 5 of group): 36.21; AUC of the OGTT ([4]; mouse 6 of group): 19386; Levels of fasting insulin ([4]; mouse 6 of group): 32.691; Plasma HDL-c [5]: 2.289 and 2.058 and 2.182 and 2.361 and 2.149; Abundance of A. muciniphila in the intestine [6]: no effect
CC(C)C[C@H](NC(=O)[C@H](CC(N)=O)NC(=O)[C@@H](N)Cc1ccc(O)cc1)C(=O)N1CCC[C@H]1C(=O)O [YNLP] (H-YNLP-OH) | 98.7 | 99 | 100 | 97.5 | 99.8 | 100 | readily resistant | 22.415 | 17.2115 | 22.0674 | 510 | 100 | 
C[C@H](NC(=O)[C@H](Cc1ccc(O)cc1)NC(=O)[C@H](CO)NC(=O)[C@@H](N)Cc1ccc(O)cc1)C(=O)O [YSYA] (H-YSYA-OH) | 3.01 | 3.24 | 4.18 | 17.8 | 17.7 | 15.2 |  | 27.0679 | 29.9267 | 30.8304 | 410 | 5.54 | 
CN(C)CCCOc1nn(Cc2ccccc2)c2ccccc12 [benzydamine, benzydamine hydrochloride] |  |  |  |  |  |  |  |  |  |  |  |  | Abundance of A. muciniphila in faeces [8]: reduced the abundance of A. muciniphila to an extremely low level; Growth of A. muciniphila [9]: specifically inhibit the growth of A. muciniphila
